Results from patent US20100210611A1, “COMBINATION THERAPY” (priority 2007, published 2010).
“And” between values parts separate entries of the source, which are not always exact repeats. Identical values can stand only once. Blank lines part the entries; values can stand above or below the compound they belong to.

Legend:
Format in all cases: physicochemical
[1] = Moisture and light sensitivity
[2] = Particle size of unmilled and jet milled API
[3] = Blend uniformity (individual capsule assay); details: HPLC, Mean ± RSD
Procedure: To assess blend uniformity, capsules from each blend were opened and rinsed with methanol. The solution was sonicated for 5 minutes at room temperature, centrifuged at 3000 rpm for 15 minutes then assayed using a UV-VIS spectrophotometer at a wavelength of 346 nm. […]
To assess blend uniformity, the blend was sampled randomly from the glass vial. The drugs were extracted analogous to that described in section Blend Uniformity for Example 1. However, the content of montelukast acid and mometasone furoate were analyzed by High Performance Liquid Chromatography (HPLC) employing a phenyl column with a controlled temperature of 50° C., a mixture of water containing 0.2% trifluoroacetic acid (TFA) and acetonitrile containing 0.2% TFA (53:47) as the mobile phase at a flow rate 2 ml/min and UV-detection at 248 nm.
The blend uniformity was assessed in a manner analogous to that described in the Blend Uniformity section in Example 4, except the content of montelukast acid and ciclesonide were analyzed by High Performance Liquid Chromatography (HPLC) employing a phenyl column with a controlled temperature of 50° C., a mixture of water containing 0.2% trifluoroacetic acid (TFA) and acetonitrile containing 0.2% TFA (40:60) at a flow rate 2 ml/min and UV-detection at 248 nm.

[4] = Dose uniformity, Dosage Unit Sampling Apparatus (DUSA), USP <601>; details: Spinhaler; for Total recovered / amount in Device + Capsule: listed as MOM; for amount in Device + Capsule: nominal 1000 μg MON, 400 μg MOM
Procedure: Dose uniformity was determined using Apparatus B (Dosage Unit Sampling Apparatus—DUSA) at a flow rate of 100 L/min (test described in United States Pharmacopoeia (USP) 27 Chapter <601>). The USP recommends selecting a flow rate that creates a pressure drop of 4 kPa across the inhaler. With the Spinhaler, a 4 kPa pressure drop could not be achieved even at the maximum flow rate of 100 L/min. Based on the recommendations of Byron, et al., a flow rate of 100 L/min was selected since the Spinhaler is a low resistance device. See Michael Hindle and Peter R. Byron, “Dose emissions from marketed dry powder inhalers”, International Journal of Pharmaceutics 116 (1995) 169-177. The test was run for 2.4 seconds in order to pull 4 L of air. After a shot had been delivered, all pieces of the DUSA including the mouthpiece adapter were rinsed with solvent. To determine the amount of drug retained in the inhaler, all pieces of the inhaler were rinsed with solvent including the interior of the capsule. The samples were then assayed using the UV-Vis spectrophotometer.
Shot weight was obtained by measuring the weight loss due to the actuation of the device. The device was tared, a “shot” was wasted in the DUSA and the device was re-weighed to obtain the delivered shot weight. Dose and shot weight were deemed acceptable if they were within 75% to 125% of the theoretical values (USP <601>).
(§1) Dose Uniformity (DU) was performed according to USP Chapter <601> by using DUSA Apparatus B with the Spinhaler® device which is analogous to that described in section Dose Uniformity for Example 1. However, the HPLC was used to analyze the content of the drugs as described in the Blend Uniformity in this example.
as §1, with “Uniformity” for “Uniformity (DU)”, “device and in a manner” for “device which is”, “Uniformity in” for “Uniformity for”, “Example 4, except” for “Example 1. However,”

[5] = Aerodynamic particle size distribution, Andersen cascade impaction (ACI); details: Spinhaler; for MMAD: cutoff diameter based on airflow rate of 28.3 L/min; for amount in ACI: including mouthpiece adapter
From the text: The Andersen cascade impaction (ACI) (Apparatus 3) was the device used to determine the aerodynamic size distribution. The impaction provided in vitro measurements of the fraction of the aerosol that has the potential to reach the alveolar region of the lung. This value is represented by the portion of particles detected below plate 2. The impaction was operated at the flow rate and test time according to the method described in USP <601>. Because the Spinhaler® is a low resistance device, it is difficult to achieve a pressure drop of 4 kPa, an adjustment of the air flow rate at the intake of the flow control was performed, as discussed above. Each impaction plate was coated with silicone grease (316 Dow Corning) to prevent particles from bouncing off the plates and returning to the air stream. All stages were used since the test flow rate was less than 60 L/min. All pieces of the impaction including the inhaler and capsule were rinsed with solvent, diluted to suitable volumes, sonicated, centrifuged and assayed using the UV-VIS spectrophotometer. The respirable portion was quantified by the in vitro fine particle fraction and fine particle mass. Dose uniformity and cascade impaction tests were carried out at controlled temperature (20-25° C.) and humidity (50% RH). […]
Aerodynamic size distribution was performed according to USP Chapter <601> by using ACI Apparatus 3 with the Spinhaler® device analogous to that described in section Aerodynamic Particle Size Distribution for Example 1. However, the HPLC was used to analyze the content of the drugs as described in the Blend Uniformity in this example.
Aerodynamic size distribution was performed according to USP Chapter <601> by using ACI Apparatus 3 with the Spinhaler® device in a manner analogous to that described in section Aerodynamic Particle Size Distribution in Example 4. The content of the drugs were analyzed as described in the Blend Uniformity in this example.

[6] = Milled API, Microtrac data, after sonication for 60 seconds
[7] = Unmilled API, optical microscopy
[8] = Example 4 blend, flow 61.5 L/min for 3.9 sec
[9] = Example 4 blend, flow 62.3 L/min for 3.9 sec
[10] = Example 4 blend, flow 62.8 L/min for 3.8 sec
[11] = Example 4 blend, listed as mometasone furoate
[12] = Example 5 blend, listed as ciclesonide

moisture and light sensitivity [1]: moisture sensitive and photosensitive | Particle size, 95% ([2]; Milled API, Aerosizer data): 7.832 microns | Particle size, Mean ([2]; Milled API, Aerosizer data): 2.832 microns | Particle size, 95% [2, 6]: 4.577 microns | Particle size, Mean [2, 6]: 2.794 microns | Particle size, 95% [2, 7]: 37 microns | Particle size, Mean [2, 7]: 11 microns
SMILES: O=C(NC1CC1)c1cn(-c2cccc(C#Cc3ccc[n+]([O-])c3)c2)c2ncccc2c1=O [Compound X, N-cyclopropyl-1-[3-(1-oxido-3-pyridinylethynyl)phenyl]-1,4-dihydro[1,8]-naphthyridin-4-one-3-carboxamide]

Amount Recovered (μg/Capsule) ([3]; Example 4 blend (montelukast acid 4%, mometasone furoate 1.6%)): 386.8 µg and 371.6 µg and 389.5 µg | Amount Recovered (μg/Capsule) ([3]; Example 4 blend (montelukast acid 4%, mometasone furoate 1.6%), mean): 382.6 ± 2.6 µg | Amount Recovered, % ([3]; Example 4 blend): 93.9% and 93.5% and 95.8% | Amount Recovered, % ([3]; Example 4 blend, mean): 94.4 ± 1.4% | DU based on nominal dose, % (Device + Capsule) ([4]; Example 4 blend): 44.5% | DU based on nominal dose, % (printed in Adapter + Filter column) ([4]; Example 4 blend): 55.5% | DU based on total recovered, % (Device + Capsule) ([4]; Example 4 blend): 44.5% | DU based on total recovered, % (printed in Adapter + Filter column) ([4]; Example 4 blend): 55.5% | Total recovered [4, 8]: 397.04 µg and 394.77 µg and 399.78 µg | Total recovered [4, 9]: 408.74 µg and 407.23 µg | Total recovered [4, 10]: 394.15 µg and 396.73 µg | amount in Device + Capsule [4, 8]: 179.94 µg and 178.36 µg and 177.83 µg | amount in Device + Capsule [4, 9]: 165.97 µg and 165.37 µg | amount in Device + Capsule [4, 10]: 187.90 µg and 189.44 µg | FPD ([5]; Example 4 blend): 43.5 µg and 53.9 µg and 41.8 µg | FPF ([5]; Example 4 blend): 21.0% and 22.7% and 22.1% | GSD ([5]; Example 4 blend): 1.5 | Total recovered ([5]; Example 4 blend): 404 µg and 402 µg and 395 µg | amount in inhaler ([5]; Example 4 blend): 198 µg and 165 µg and 206 µg | MMAD ([5]; Example 4 blend): 3.9 μm and 4.1 μm | MMAD [5, 11]: 4.0 μm | MMAD ([5]; Example 4 blend, mean): 4.0 μm | amount in ACI ([5]; Example 4 blend): 207 µg and 237 µg and 189 µg | amount in ACI ([5]; Example 4 blend, mean): 211 µg | FPF [5, 11]: 22% | FPD ([5]; Example 4 blend, mean): 46.4 µg | FPF ([5]; Example 4 blend, mean): 21.9% | GSD ([5]; Example 4 blend, mean): 1.4 | Total recovered ([5]; Example 4 blend, mean): 400 µg | amount in inhaler ([5]; Example 4 blend, mean): 189 µg
SMILES: C[C@@H]1C[C@H]2[C@@H]3CCC4=CC(=O)C=C[C@]4(C)[C@@]3(Cl)[C@@H](O)C[C@]2(C)[C@@]1(OC(=O)c1ccco1)C(=O)CCl [Mometasone Furoate, mometasone furoate]

Amount Recovered (μg/Capsule) ([3]; Example 5 blend (montelukast acid 4%, ciclesonide 0.64%)): 150.9 µg and 146.7 µg and 157.6 µg | Amount Recovered (μg/Capsule) ([3]; Example 5 blend (montelukast acid 4%, ciclesonide 0.64%), mean of three capsules): 151.1 ± 3.3 µg | Amount Recovered, % ([3]; Example 5 blend): 93.3% and 93.7% and 92.5% | Amount Recovered, % ([3]; Example 5 blend, mean of three capsules): 93.2 ± 0.6% | DU based on nominal dose, % (Device + Capsule) ([4]; Example 5 blend): 35.2% | DU based on nominal dose, % (printed in Adapter + Filter column) ([4]; Example 5 blend): 61.7% | DU based on total recovered, % (Device + Capsule) ([4]; Example 5 blend): 36.3% | DU based on total recovered, % (printed in Adapter + Filter column) ([4]; Example 5 blend): 63.7% | FPD ([5]; Example 5 blend): 33.6 µg and 31.1 µg and 41.4 µg | FPF ([5]; Example 5 blend): 30.6% and 29.1% and 33.9% | GSD ([5]; Example 5 blend): 1.7 and 1.5 | Total recovered ([5]; Example 5 blend): 177 µg and 160 µg and 178 µg | amount in inhaler ([5]; Example 5 blend): 67 µg and 53 µg and 56 µg | MMAD ([5]; Example 5 blend): 3.6 μm and 3.8 μm | MMAD [5, 12]: 3.7 μm | MMAD ([5]; Example 5 blend, mean): 3.7 μm | amount in ACI ([5]; Example 5 blend): 110 µg and 107 µg and 122 µg | amount in ACI ([5]; Example 5 blend, mean): 113 µg | FPF [5, 12]: 31% | FPD ([5]; Example 5 blend, mean): 35.5 µg | FPF ([5]; Example 5 blend, mean): 31.2% | GSD ([5]; Example 5 blend, mean): 1.6 | Total recovered ([5]; Example 5 blend, mean): 172 µg | amount in inhaler ([5]; Example 5 blend, mean): 59 µg
SMILES: CC(C)C(=O)OCC(=O)[C@@]12O[C@H](C3CCCCC3)O[C@@H]1C[C@H]1[C@@H]3CCC4=CC(=O)C=C[C@]4(C)[C@H]3[C@@H](O)C[C@@]12C [Ciclesonide, ciclesonide]
